Experimental data as given in paper PMC5435703 (Scientific Reports, 2017).
In brackets after ≈: the same amount, converted by molar mass. Where two headings read alike, the source gives them in different places.

What was measured:
S. epi 12228 = assay: MIC broth microdilution assay; type: cell-based, Staphylococcus epidermidis
VRE 700221 [1] = assay: MIC broth microdilution assay; type: cell-based, Enterococcus faecium; details: Enterococcus, VRE
MRSA BAA-1707 [2] = assay: Calgary Biofilm Device (CBD) MBC/MBEC assay; type: cell-based, Staphylococcus aureus
MRSE 35984 [3] = assay: Calgary Biofilm Device (CBD) MBC/MBEC assay; type: cell-based, Staphylococcus epidermidis; details: Staphylococcus epidermidis, MRSE; CBD, planktonic killing; read-out: MRSE 35984 MBC
VRE 700221 [4] = assay: Calgary Biofilm Device (CBD) MBC/MBEC assay; type: cell-based, Enterococcus faecium; details: Enterococcus, VRE; CBD, planktonic killing; read-out: VRE 700221 MBC
MRSA BAA-1707 [5] = assay: MIC assay with metal(II) cation co-treatment; type: cell-based, Staphylococcus aureus; details: Staphylococcus aureus
MRSA BAA-1707 [6] = assay: MIC broth microdilution assay; type: cell-based, Staphylococcus aureus
MRSA-2 = assay: MIC broth microdilution assay; type: cell-based, Staphylococcus aureus; details: Staphylococcus aureus, MRSA; Table 1; read-out: MIC MRSA-2
MRSE 35984 [7] = assay: MIC broth microdilution assay; type: cell-based, Staphylococcus epidermidis; details: Staphylococcus epidermidis, MRSE
MRSA-1 = assay: MIC broth microdilution assay; type: cell-based, Staphylococcus aureus; details: Staphylococcus aureus, MRSA; Table 1; read-out: MIC MRSA-1
MtB H37Ra = assay: MIC assay for Mycobacterium tuberculosis; type: cell-based
[8] = LDH release assay for HeLa cytotoxicity; type: cell-based; details: human, HeLa cells; LDH release, 24 hours; tested at 25, 50 and 100 µM; read-out: HeLa Cytotox. IC50
four MRSA isolates = assay: MIC assays, panel of four MRSA isolates; type: cell-based; details: Staphylococcus aureus, range over isolates, read-out: MIC against a panel of four MRSA isolates
[9] = Hemolysis assay with red blood cells; details: human, pH 7.2
MRSA BAA-44 = assay: MIC broth microdilution assay; type: cell-based; details: Staphylococcus aureus; Table 1; read-out: MIC MRSA BAA-44
[10] = Staphylococcus aureus, Table 1, three independent experiments, read-out: MIC MRSA BAA-1707
[11] = Staphylococcus aureus, Table 3, read-out: MRSA BAA-1707 MIC
[12] = Table 1, read-out: MIC MRSE 35984
[13] = Table 3, read-out: MRSE 35984 MIC
[14] = Table 1, read-out: MIC VRE 700221
[15] = Table 3, read-out: VRE 700221 MIC
[16] = Staphylococcus aureus, single plate shown as picture, read-out: MIC (µM), MIC Assay against MRSA BAA-1707
[17] = Staphylococcus epidermidis, 12228, Table 1, read-out: MIC S. epi 12228
[18] = Staphylococcus epidermidis, 12228, single plate shown as picture, read-out: MIC (µM), MIC Assay Against S. epidermidis 12228
[19] = single plate shown as picture, read-out: MIC (µM), MIC Assay Against MRSE 35984

CN[C@H](CC(C)C)C(=O)N[C@H]1C(=O)N[C@@H](CC(N)=O)C(=O)N[C@H]2C(=O)N[C@H]3C(=O)N[C@H](C(=O)N[C@H](C(=O)O)c4cc(O)cc(O)c4-c4cc3ccc4O)[C@H](O)c3ccc(c(Cl)c3)Oc3cc2cc(c3O[C@@H]2O[C@H](CO)[C@@H](O)[C@H](O)[C@H]2O[C@H]2C[C@](C)(N)[C@H](O)[C@H](C)O2)Oc2ccc(cc2Cl)[C@H]1O [vancomycin, reference compound]
MIC (S. epi 12228; Staphylococcus epidermidis, 12228, read-out: MIC S. epi 12228): 1.17 µM (≈ 1.7 µg/mL) | MIC (VRE 700221 [1]; read-out: MIC VRE 700221): > 100 µM | MIC (VRE 700221 [1]; read-out: VRE 700221 MIC): > 100 µM | MRSA-1707 Biofilm Eradication MBEC (MRSA BAA-1707 [2]; Figure 7A, single CBD plate): > 2000 µM | MBC (MRSA BAA-1707 [2]; Staphylococcus aureus, Figure 7A, single CBD plate, read-out: MRSA-1707 Planktonic Eradication MBC): 3.9 µM (≈ 5.65 µg/mL) | MBC (MRSA BAA-1707 [2]; Staphylococcus aureus, CBD, planktonic killing, 24 hours treatment, read-out: MRSA BAA-1707 MBC): 3.9 µM (≈ 5.65 µg/mL) | MBC (MRSE 35984 [3]): 3 µM (≈ 4.35 µg/mL) | MBC (VRE 700221 [4]): > 200 µM

Oc1cccc2cccnc12 [8-OHQ, 8-hydroxyquinoline, reference compound]
MIC (MRSA BAA-1707 [5]): 9.38 µM | MIC (MRSA BAA-1707 [5]; read-out: MIC w/Cu2+): 4.69 µM | MIC (MRSA BAA-1707 [5]; read-out: MIC w/Fe2+): 12.5 µM | MIC (MRSA BAA-1707 [5]; read-out: MIC w/Mg2+): 6.25 µM | MIC (MRSA BAA-1707 [5]; read-out: MIC w/Zn2+): 12.5 µM

CC(=O)NC[C@H]1CN(c2ccc(N3CCOCC3)c(F)c2)C(=O)O1 [linezolid, reference compound]
MIC (MRSA BAA-1707 [6]; [10]): 12.5 µM (≈ 4.22 µg/mL) | MIC (MRSA BAA-1707 [6]; [11]): 12.5 µM (≈ 4.22 µg/mL) | MIC (MRSA-2): 3.13 µM (≈ 1.06 µg/mL) | MIC (MRSE 35984 [7]; [12]): 3.13 µM (≈ 1.06 µg/mL) | MIC (MRSE 35984 [7]; [13]): 3.13 µM (≈ 1.06 µg/mL) | MIC (VRE 700221 [1]; [14]): 3.13 µM (≈ 1.06 µg/mL) | MIC (VRE 700221 [1]; [15]): 3.13 µM (≈ 1.06 µg/mL) | MRSA BAA-1707 MBEC (MRSA BAA-1707 [2]; CBD, biofilm eradication, 24 hours treatment): > 2000 µM | MBC (MRSA BAA-1707 [2]; Staphylococcus aureus, 24 h, read-out: MRSA BAA-1707 MBC): 31.3 µM (≈ 10.6 µg/mL) | minimal effective concentration (MRSA BAA-1707 [2]; Staphylococcus aureus, 24 h, read-out: MRSA BAA-1707 MBEC): > 2000 µM

Cc1cc(Br)c(O)c2nc3cccc(Br)c3nc12 [HP 13]
MIC (MRSA BAA-1707 [6]; [10]): 1.17 µM (≈ 0.431 µg/mL) | MIC (MRSA BAA-1707 [6]; [16]): 0.78 µM (≈ 0.287 µg/mL) | MIC (MRSA-2): 2.35 µM (≈ 0.865 µg/mL)

Oc1c(Br)cc(Br)c2nc3ccc(Cl)cc3nc12 [HP 22]
MIC (MRSA BAA-1707 [6]; [10]): 0.15 µM (≈ 0.0583 µg/mL) | MIC (MRSA BAA-1707 [6]; [11]): 0.15 µM (≈ 0.0583 µg/mL) | MIC (MRSA BAA-1707 [6]; [16]): 0.1 µM (≈ 0.0388 µg/mL) | MIC (MRSA-1): 0.15 µM (≈ 0.0583 µg/mL) | MIC (S. epi 12228; [17]): 12.5 µM (≈ 4.86 µg/mL) | MIC (S. epi 12228; [18]): 12.5 µM (≈ 4.86 µg/mL) | MIC (MtB H37Ra): 2.4 µg/mL | MIC (MtB H37Ra; 168 h, seven days): 6.25 µM | IC50 at 24 h [8]: > 100 µM | MIC (four MRSA isolates): 0.05 to 0.59 µM (≈ 0.0194 to 0.229 µg/mL) | hemolysis at 1 h, 200 µM [9]: ≤ 1%

Cc1cc(Br)c(O)c2nc3cc(C(C)(C)C)ccc3nc12 [HP 8]
MIC (MRSA BAA-1707 [6]; [10]): > 100 µM | MIC (MRSA BAA-1707 [6]; Table 1, three independent experiments, read-out: MIC MRSA BAA-1707): >100 µM | MIC (MRSA-1): > 100 µM | MIC (MRSE 35984 [7]; [12]): > 100 µM | MIC (MRSE 35984 [7]; [19]): > 100 µM | MIC (VRE 700221 [1]; [14]): > 100 µM

Cc1cc(Br)c(O)c2nc3cc(Br)ccc3nc12 [HP 14]
MIC (MRSA BAA-1707 [6]; [10]): 9.38 µM (≈ 3.45 µg/mL) | MIC (MRSA-1): 75 µM (≈ 27.6 µg/mL) | MIC (MRSE 35984 [7]; [12]): 75 µM (≈ 27.6 µg/mL)

Cc1cccc2nc3c(O)c(Br)cc(C)c3nc12 [HP 5]
MIC (MRSA BAA-1707 [6]; [10]): 9.38 µM (≈ 2.84 µg/mL) | MIC (MRSA BAA-1707 [6]; [16]): 12.5 µM (≈ 3.79 µg/mL) | MIC (MRSA-1): 37.5 µM (≈ 11.4 µg/mL) | MIC (VRE 700221 [1]; [14]): > 100 µM

[H]/N=C(/N)N[C@H]1[C@H](O)[C@@H](O)[C@H](O[C@@H]2O[C@@H](C)[C@](O)(C=O)[C@H]2O[C@@H]2O[C@@H](CO)[C@H](O)[C@@H](O)[C@@H]2NC)[C@@H](N/C(N)=N\[H])[C@@H]1O [streptomycin, reference compound]
MIC (MtB H37Ra; 168 h, seven days): 1.32 µM

Cc1ccc2nc3c(O)c(Br)cc(Br)c3nc2c1C [HP 19]
MIC (MRSA BAA-1707 [6]; [10]): 0.15 µM (≈ 0.0573 µg/mL) | MIC (MRSA BAA-1707 [6]; [11]): 0.15 µM (≈ 0.0573 µg/mL) | MIC (MRSA BAA-1707 [6]; [16]): 0.1 µM (≈ 0.0382 µg/mL) | MIC (MRSE 35984 [7]; [13]): 0.3 µM (≈ 0.115 µg/mL) | MIC (MRSE 35984 [7]; [19]): 0.2 µM (≈ 0.0764 µg/mL) | MIC (S. epi 12228; [17]): 6.25 µM (≈ 2.39 µg/mL) | MIC (S. epi 12228; [18]): 6.25 µM (≈ 2.39 µg/mL) | MIC (VRE 700221 [1]; [14]): 0.15 to 1.56 µM (≈ 0.0573 to 0.596 µg/mL) | MIC (VRE 700221 [1]; [15]): 0.15 µM (≈ 0.0573 µg/mL) | MIC (VRE 700221 [1]; single plate shown as picture, read-out: MIC (µM), MIC Assay Against VRE 700221): 0.2 µM (≈ 0.0764 µg/mL) | IC50 at 24 h [8]: > 100 µM | hemolysis at 1 h, 200 µM [9]: 5.3%

Cc1ccc2nc3c(Br)cc(Br)c(O)c3nc2c1 [HP 20]
MIC (MRSA BAA-44): […] | MIC (MRSA-2): […] | MIC (MRSE 35984 [7]; [12]): 6.25 µM (≈ 2.3 µg/mL)

Oc1cccc2nc3ccccc3nc12 [1-OHP, 1-hydroxyphenazine, reference compound]
MIC (MRSA BAA-1707 [5]; Table 2, MRSA BAA-1707, no metal(II) cation added, read-out: MIC): 250 µM | MIC (MRSA BAA-1707 [5]; copper(II) at 200 µM co-treatment, read-out: MIC w/Cu2+): 75 µM | MIC (MRSA BAA-1707 [5]; iron(II) at 200 µM co-treatment, read-out: MIC w/Fe2+): 250 µM | MIC (MRSA BAA-1707 [5]; magnesium(II) at 200 µM co-treatment, read-out: MIC w/Mg2+): 250 µM | MIC (MRSA BAA-1707 [5]; zinc(II) at 200 µM co-treatment, read-out: MIC w/Zn2+): > 500 µM
